PMC11878344 (Angewandte Chemie (International Ed. in English), 2025)

What was measured:
[1] = tested on: serine hydrolases of the mouse brain proteome (MAGL, DAGL, FAAH, ABHD6, ABHD12); test: Competitive multiplex ABPP in mouse brain proteome; format: biochemical; settings: 1 μM probe
Method: (§1) Activity‐based protein profiling (ABPP)[49] was used to determine the selectivity of the reversible probes (9, 10) versus a broad range of other serine hydrolases, including the relevant ECS off‐targets DAGL, FAAH, ABHD6, and ABHD12.[45, 49, 50, 51] The ABPP assay was studied in the mouse brain proteome (MBP) at 1 μM concentration as mouse brain homogenate is the most relevant model system for studying ECS enzymes.[45, 49, 50, 51] […] The irreversible probes 11 and 12 could be used to visualize MAGL by in‐gel SDS‐PAGE fluorescence of MBP samples and, thereby, directly showing the specificity of 11 and 12 towards the two MAGL splicing variants present in MBP over a broad range of concentrations. Starting at 1 nM probe concentration, MAGL was detected and only at elevated concentrations greater than 1 μM, minor off‐target protein labeling at approx. 80 kDa started to appear (Figure 3 B). In addition to testing in mouse brain lysates, we also determined the binding of MAGL probes 9–12 towards a panel of 50 off‐targets via a competitive radioligand binding screen to detect interference with potential safety‐related off‐targets (Figure 3 C).
(§2) Mouse brain sample preparation. […] Protein concentration was determined with Bradford Assay, and samples were diluted to a final concentration of 2.0 mg/mL. […]

[2] = molecular target: T1, MAGL splicing variants in mouse brain proteome (Mus musculus, UniProt O35678); test: In-gel SDS-PAGE fluorescence labeling of mouse brain proteome with irreversible probes; format: biochemical
T1 sequence (O35678 1-303): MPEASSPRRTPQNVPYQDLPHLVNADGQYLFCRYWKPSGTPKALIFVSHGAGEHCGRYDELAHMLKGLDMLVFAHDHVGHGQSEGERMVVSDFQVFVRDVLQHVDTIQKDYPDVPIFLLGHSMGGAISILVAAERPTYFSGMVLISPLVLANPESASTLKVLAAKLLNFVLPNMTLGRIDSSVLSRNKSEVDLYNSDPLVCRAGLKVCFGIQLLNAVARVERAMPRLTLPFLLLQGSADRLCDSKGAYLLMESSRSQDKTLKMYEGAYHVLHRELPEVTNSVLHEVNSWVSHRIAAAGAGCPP
Method: as §1, §2

| Compound | Blocking of serine hydrolase fluorescence signal (selectivity) [1] | Probe concentration at which minor off-target protein labeling (approx. 80 kDa) appears [2] | Probe concentration from which MAGL was detected [2] |
| --- | --- | --- | --- |
| CN(C)c1ccc2c(c1)[Si](C)(C)c1cc(N(C)C)ccc1C21OC(=O)c2ccc(C(=O)NCCCCCOc3ccccc3CC3CC4(C3)CN(C(=O)N3CC5(COC(=O)N5)C3)C4)cc21 (stereo not drawn) [Compound 10] | Complete blocking of the fluorescence signal was exclusively observed for MAGL | – | – |
| CN(C)c1ccc2c(c1)[Si](C)(C)c1cc(N(C)C)ccc1C21OC(=O)c2ccc(C(=O)NCCCCCOc3ccccc3CC3CC4(C3)CN(C(=O)OC(C(F)(F)F)C(F)(F)F)C4)cc21 (stereo not drawn) [Compound 12] | – | greater than 1 μM | ≥ 1 nM |
